Here are results for two compounds from patent publication US20060289019A1, “Information method and system for generating data for optimizing a medical treatment, and equipment used in this system” (IPPM HOLDING SA, priority 2005, published 2006).

The conditions of data set [1]: male, human, in vivo. The procedure:
A patient suffering from schizo-affective disorder and from dual personality disorder reacts correctly to clozapine (clozaril, 600 mg/day, blood concentration: 502 ng/mL). They are also treated with lithium (eskalith, 900 mg/day). […] After 11 days the patient had to be admitted to the emergency department because they had too high a blood level of clozapine (2112 ng/mL).
Thus, the DEM will transfer the pharmacogenetic data from the DGSB. It will find, according to the pharmacokinetic data and studies on clozapine-fluvoxamine interaction, an appropriate function and the corresponding statistical values. […] The dosage of fluvoxamine is sought to be maintained constant. Still with reference to FIG. 3, the straight line which is of interest therefore, is that for which the blood level is 5 μM. […] The equation of this straight line (according to data taken from a publication) is y=3.7×/1.8 ? x=1.8y/3.7. Therefore if y=502 ng/mL then x=502*1.8/3.7=244 ng/mL. This means that the current dosage would need to be reduced by at least a half in order to avoid too great an interaction between the two products and especially to prevent a worrying blood level of clozapine in the blood. This optimization reasoning will be carried out by the OS as a function of the data which are sent to it by the DEM.

For data set [2], the system named is clozapine N-demethylation. The note with it: cited from earlier work.

For `CN1CCN(C2=Nc3cc(Cl)ccc3Nc3ccccc32)CC1` [clozapine], the “clozapine blood level x calculated from straight line x=1.8y/3.7 for y=502 ng/mL” value in data set [1] is on record as 244 ng/mL.
As to `COCCCC/C(=N\OCCN)c1ccc(C(F)(F)F)cc1` [fluvoxamine], in data set [2], the “clozapine N-demethylation inhibitor strength” value is recorded as “strong”.
